Measured values from patent US20260083714A1, “DOSING REGIMEN FOR TREATING PKU WITH A PIPERIDINE INHIBITOR OF SLC6A19 FUNCTION” (Jnana Therapeutics Inc., priority 2022, published 2026).
Read-outs that look alike come from different tables or passages of the source.

How the values were obtained:
[1] = Plasma levels of Compound 1 over 24 hours after 14 days of suspension administration in healthy volunteers; format: in vivo; details: human, oral; for concentration at 0 h: 0 h post-dose; for concentration at 0.5 h: 0.5 h post-dose; for concentration at 1 h: 1 h post-dose; for concentration at 1.5 h: 1.5 h post-dose; for concentration at 2 h: 2 h post-dose; for concentration at 2.5 h: 2.5 h post-dose; for concentration at 3 h: 3 h post-dose; for concentration at 4 h: 4 h post-dose; for concentration at 6 h: 6 h post-dose; for concentration at 8 h: 8 h post-dose; for concentration at 8.5 h: 8.5 h post-dose; for concentration at 9 h: 9 h post-dose; for concentration at 9.5 h: 9.5 h post-dose; for concentration at 10 h: 10 h post-dose; for concentration at 10.5 h: 10.5 h post-dose; for concentration at 11.5 h: 11.5 h post-dose; for concentration at 12 h: 12 h post-dose; for concentration at 14 h: 14 h post-dose; for concentration at 16 h: 16 h post-dose; for concentration at 24 h: 24 h post-dose
Protocol: FIG. 2 is an assessment of the pharmacokinetics of Compound 1 in healthy volunteers over 24 hours after 14 days of administration of a suspension of the compound at three different doses (25 or 75 mg twice daily [BID] or 150 mg once daily [QD]).
A suspension formulation of varying doses of Compound 1 (25 or 75 mg twice daily [BID] or 150 mg once daily [QD]) was administered to healthy volunteers. Plasma levels of Compound 1 over 24 hours after 14 days of administration were measured (FIG. 2). Post-dose plasma levels are recited in Table 14.

[2] = Plasma levels of Compound 1 over 72 h, suspension versus tablet, fasted or fed, in healthy volunteers; format: in vivo; details: human, oral, 100 mg, read-out: Plasma level, Mean; for concentration at 0.5 h: 0.5 h post-dose; for concentration at 1 h: 1 h post-dose; for concentration at 1.5 h: 1.5 h post-dose; for concentration at 2 h: 2 h post-dose; for concentration at 2.5 h: 2.5 h post-dose; for concentration at 3 h: 3 h post-dose; for concentration at 4 h: 4 h post-dose; for concentration at 6 h: 6 h post-dose; for concentration at 8 h: 8 h post-dose; for concentration at 10 h: 10 h post-dose; for concentration at 12 h: 12 h post-dose; for concentration at 24 h: 24 h post-dose; for concentration at 36 h: 36 h post-dose; for concentration at 48 h: 48 h post-dose; for concentration at 72 h: 72 h post-dose; for concentration at 0 h: 0 h post-dose
Protocol: FIG. 4 is a graph of the pharmacokinetics of Compound 1 over 72 hours in healthy volunteers in fed or fasted states when administering 100 mg of the compound as a suspension formulation or a tablet.
A suspension formulation (100 mg, fasted) and tablet formulation (100 mg, fasted or fed) of Compound 1 was administered to healthy volunteers. Plasma levels of Compound 1 over 72 was measured (FIG. 4). Post-dose plasma levels are recited in Table 16.

SMILES: NC(=O)N1CCC[C@@H](N(C(=O)NCc2ccc(OC(F)(F)F)cc2F)C2CC2)C1 [Cpd 1, (R)-3-(1-cyclopropyl-3-(2-fluoro-4-(trifluoromethoxy)benzyl)ureido) piperidine-1-carboxamide]
- concentration at 0 h ([1]; 25 mg BID suspension): 186 ng/mL
- concentration at 0.5 h ([1]; 25 mg BID suspension): 1190 ng/mL
- concentration at 1 h ([1]; 25 mg BID suspension): 1090 ng/mL
- concentration at 1.5 h ([1]; 25 mg BID suspension): 1000 ng/mL
- concentration at 2 h ([1]; 25 mg BID suspension): 922 ng/mL
- concentration at 2.5 h ([1]; 25 mg BID suspension): 899 ng/mL
- concentration at 3 h ([1]; 25 mg BID suspension): 820 ng/mL
- concentration at 4 h ([1]; 25 mg BID suspension): 682 ng/mL
- concentration at 6 h ([1]; 25 mg BID suspension): 442 ng/mL
- concentration at 8 h ([1]; 25 mg BID suspension): 336 ng/mL
- concentration at 8.5 h ([1]; 25 mg BID suspension): 894 ng/mL
- concentration at 9 h ([1]; 25 mg BID suspension): 977 ng/mL
- concentration at 9.5 h ([1]; 25 mg BID suspension): 1010 ng/mL
- concentration at 10 h ([1]; 25 mg BID suspension): 1010 ng/mL
- concentration at 10.5 h ([1]; 25 mg BID suspension): 957 ng/mL
- concentration at 11.5 h ([1]; 25 mg BID suspension): 909 ng/mL
- concentration at 12 h ([1]; 25 mg BID suspension): 748 ng/mL
- concentration at 14 h ([1]; 25 mg BID suspension): 562 ng/mL
- concentration at 16 h ([1]; 25 mg BID suspension): 422 ng/mL
- concentration at 24 h ([1]; 25 mg BID suspension): 193 ng/mL
- concentration at 0 h ([1]; 75 mg BID suspension): 916 ng/mL
- concentration at 0.5 h ([1]; 75 mg BID suspension): 3350 ng/mL
- concentration at 1 h ([1]; 75 mg BID suspension): 3860 ng/mL
- concentration at 1.5 h ([1]; 75 mg BID suspension): 3550 ng/mL
- concentration at 2 h ([1]; 75 mg BID suspension): 3330 ng/mL
- concentration at 2.5 h ([1]; 75 mg BID suspension): 3140 ng/mL
- concentration at 3 h ([1]; 75 mg BID suspension): 2910 ng/mL
- concentration at 4 h ([1]; 75 mg BID suspension): 2610 ng/mL
- concentration at 6 h ([1]; 75 mg BID suspension): 2000 ng/mL
- concentration at 8 h ([1]; 75 mg BID suspension): 1600 ng/mL
- concentration at 8.5 h ([1]; 75 mg BID suspension): 3430 ng/mL
- concentration at 9 h ([1]; 75 mg BID suspension): 3600 ng/mL
- concentration at 9.5 h ([1]; 75 mg BID suspension): 3740 ng/mL
- concentration at 10 h ([1]; 75 mg BID suspension): 3600 ng/mL
- concentration at 10.5 h ([1]; 75 mg BID suspension): 3740 ng/mL
- concentration at 11.5 h ([1]; 75 mg BID suspension): 3200 ng/mL
- concentration at 12 h ([1]; 75 mg BID suspension): 2900 ng/mL
- concentration at 14 h ([1]; 75 mg BID suspension): 2280 ng/mL
- concentration at 16 h ([1]; 75 mg BID suspension): 1850 ng/mL
- concentration at 24 h ([1]; 75 mg BID suspension): 741 ng/mL
- concentration at 0 h ([1]; 150 mg QD suspension): 299 ng/mL
- concentration at 0.5 h ([1]; 150 mg QD suspension): 4230 ng/mL
- concentration at 1 h ([1]; 150 mg QD suspension): 4590 ng/mL
- concentration at 1.5 h ([1]; 150 mg QD suspension): 4360 ng/mL
- concentration at 2 h ([1]; 150 mg QD suspension): 4100 ng/mL
- concentration at 2.5 h ([1]; 150 mg QD suspension): 3940 ng/mL
- concentration at 3 h ([1]; 150 mg QD suspension): 3660 ng/mL
- concentration at 4 h ([1]; 150 mg QD suspension): 3130 ng/mL
- concentration at 6 h ([1]; 150 mg QD suspension): 2270 ng/mL
- concentration at 8 h ([1]; 150 mg QD suspension): 1750 ng/mL
- concentration at 10 h ([1]; 150 mg QD suspension): 1360 ng/mL
- concentration at 12 h ([1]; 150 mg QD suspension): 1000 ng/mL
- concentration at 24 h ([1]; 150 mg QD suspension): 247 ng/mL
- concentration at 0.5 h ([2]; 100 mg suspension, fasted): 1840 ng/mL
- concentration at 1 h ([2]; 100 mg suspension, fasted): 2310 ng/mL
- concentration at 1.5 h ([2]; 100 mg suspension, fasted): 2440 ng/mL
- concentration at 2 h ([2]; 100 mg suspension, fasted): 2630 ng/mL
- concentration at 2.5 h ([2]; 100 mg suspension, fasted): 2620 ng/mL
- concentration at 3 h ([2]; 100 mg suspension, fasted): 2720 ng/mL
- concentration at 4 h ([2]; 100 mg suspension, fasted): 2750 ng/mL
- concentration at 6 h ([2]; 100 mg suspension, fasted): 2090 ng/mL
- concentration at 8 h ([2]; 100 mg suspension, fasted): 1580 ng/mL
- concentration at 10 h ([2]; 100 mg suspension, fasted): 1110 ng/mL
- concentration at 12 h ([2]; 100 mg suspension, fasted): 778 ng/mL
- concentration at 24 h ([2]; 100 mg suspension, fasted): 216 ng/mL
- concentration at 36 h ([2]; 100 mg suspension, fasted): 50 ng/mL
- concentration at 48 h ([2]; 100 mg suspension, fasted): 24.2 ng/mL
- concentration at 72 h ([2]; 100 mg suspension, fasted): 12.8 ng/mL
- concentration at 0 h ([2]; 100 mg tablet, fasted): 12.1 ng/mL
- concentration at 0.5 h ([2]; 100 mg tablet, fasted): 1600 ng/mL
- concentration at 1 h ([2]; 100 mg tablet, fasted): 2110 ng/mL
- concentration at 1.5 h ([2]; 100 mg tablet, fasted): 2400 ng/mL
- concentration at 2 h ([2]; 100 mg tablet, fasted): 2550 ng/mL
- concentration at 2.5 h ([2]; 100 mg tablet, fasted): 2530 ng/mL
- concentration at 3 h ([2]; 100 mg tablet, fasted): 2580 ng/mL
- concentration at 4 h ([2]; 100 mg tablet, fasted): 2580 ng/mL
- concentration at 6 h ([2]; 100 mg tablet, fasted): 2070 ng/mL
- concentration at 8 h ([2]; 100 mg tablet, fasted): 1650 ng/mL
- concentration at 10 h ([2]; 100 mg tablet, fasted): 1250 ng/mL
- concentration at 12 h ([2]; 100 mg tablet, fasted): 891 ng/mL
- concentration at 24 h ([2]; 100 mg tablet, fasted): 324 ng/mL
- concentration at 36 h ([2]; 100 mg tablet, fasted): 59.5 ng/mL
- concentration at 48 h ([2]; 100 mg tablet, fasted): 29 ng/mL
- concentration at 72 h ([2]; 100 mg tablet, fasted): 11.4 ng/mL
- concentration at 0 h ([2]; 100 mg tablet, fed): 12.1 ng/mL
- concentration at 0.5 h ([2]; 100 mg tablet, fed): 1660 ng/mL
- concentration at 1 h ([2]; 100 mg tablet, fed): 2220 ng/mL
- concentration at 1.5 h ([2]; 100 mg tablet, fed): 2320 ng/mL
- concentration at 2 h ([2]; 100 mg tablet, fed): 2850 ng/mL
- concentration at 2.5 h ([2]; 100 mg tablet, fed): 2910 ng/mL
- concentration at 3 h ([2]; 100 mg tablet, fed): 2950 ng/mL
- concentration at 4 h ([2]; 100 mg tablet, fed): 2860 ng/mL
- concentration at 6 h ([2]; 100 mg tablet, fed): 2260 ng/mL
- concentration at 8 h ([2]; 100 mg tablet, fed): 1740 ng/mL
- concentration at 10 h ([2]; 100 mg tablet, fed): 1270 ng/mL
- concentration at 12 h ([2]; 100 mg tablet, fed): 963 ng/mL
- concentration at 24 h ([2]; 100 mg tablet, fed): 329 ng/mL
- concentration at 36 h ([2]; 100 mg tablet, fed): 90.1 ng/mL
- concentration at 48 h ([2]; 100 mg tablet, fed): 45 ng/mL
- concentration at 72 h ([2]; 100 mg tablet, fed): 15 ng/mL
